Data on two compounds can be found in US8859232B2, “Genetically encoded photomanipulation of protein and peptide activity” (The University of North Carolina at Chapel Hill, priority 2009, dated 2014).

The subject of this experiment is MEF cells expressing mVenus-tagged PA-Rac1. Briefly: Inhibitor studies: localized activation of PA-Rac1 in inhibitor-treated MEF cells. The format is cell-based, mouse. Particulars: Blebbistatin 1 μM, Y-27632 10 μM; for effect of inhibitor on PA-Rac1 light-induced protrusion: FIG. 6C; for effect of inhibitor on the ability of Rac1 to specify the direction of movement: FIG. 6D. The procedure: Inhibitor studies: MEF cells expressing mVenus-tagged PA-Rac1 were incubated with 1 μM myosin II inhibitor Blebbistatin, 1 μM MLCK inhibitor ML-7, or 10 μM ROCK inhibitor Y-27632 (Calbiochem). Cells underwent the cell shape changes previously described (Katsumi et al., J. Cell Biol. 158:153 (2002)) and then reached a stable state within 30 minutes. After this cells were irradiated with the 458 nm laser at a 10-μm spot to induce PA-Rac activation.
Protrusion/retraction analysis: Fluorescence images of MEF cells expressing mVenus-tagged PA-Rac1 and its mutants were masked based on intensity thresholding to produce binary images. Regions of protrusion were isolated by subtracting the binary image at a given time point from that at time 0. Conversely the binary images of retraction were obtained. Areas not part of protrusions or retractions, those that overlapped the time 0 image, were obtained by subtracting the above two images from that at time 0. Each binary image was assigned a different color: red=protrusion, blue=retraction, green=area overlapping with time 0, and white=background. These operations were carried out using MetaMorph software.
Polarity index calculation: To obtain the polarity index (cos θ) of the migrating MEF cells, X and Y coordinates were obtained for the centroid before movement (x0,y0), the centroid after movement (x1,y1), and for the center of the irradiation spot (x2,y2), using MetaMorph software. The cos and sin values of the angles were obtained using simple triangle calculations. First two angles were defined using an arbitrarily selected horizontal line θ1=angle between the arbitrary line and the line from (x0,y0) to (x1,y1), and θ2=angle between the arbitrary line and the line between (x0,y0) and (x2,y2). The cos used to characterize polarity (see FIG. 6) was obtained using the following formula: cos θ=cos(θ1−θ2)=cos θ1 cos θ2+sin θ1 sin θ2

Take `Cc1ccc2c(c1)C(=O)C1(O)CCN(c3ccccc3)C1=N2` (stereo not shown) [Blebbistatin]: the “effect of inhibitor on PA-Rac1 light-induced protrusion” value is listed as “little effect” and the “effect of inhibitor on the ability of Rac1 to specify the direction of movement” value is recorded as “randomization of movement”.
Turning to `C[C@@H](N)[C@H]1CC[C@H](C(=O)Nc2ccncc2)CC1` [Y-27632], the “effect of inhibitor on PA-Rac1 light-induced protrusion” value is “strongly reduced protrusion” and the “effect of inhibitor on the ability of Rac1 to specify the direction of movement” value is recorded as “little effect”.
